Experimental data published in the kinase profiling compilation of Christmann-Franck et al. (2016).
Several values for one entry are separate records, joined by “and”; a condition that tells them apart may be missing. Identical values can stand only once.

How the values were obtained:
Assay in all cases: radiometric filter-binding kinase assay, Kinase HotSpot
Settings in all cases: compound 0.5 µM; ATP 10 µM
MAP3K10 (human) = MAP3K10 (human) (UniProt Q02779)
NTRK3 (human) = NTRK3 (human) (UniProt Q16288)
ERBB2 (human) = ERBB2 (human) (UniProt P04626)
PAK3 (human) = PAK3 (human) (UniProt O75914)
MARK3 (human) = MARK3 (human) (UniProt P27448)
ULK2 (human) = ULK2 (human) (UniProt Q8IYT8)
TEC (human) = TEC (human) (UniProt P42680)
HCK (human) = HCK (human) (UniProt P08631)
VRK1 (human) = VRK1 (human) (UniProt Q99986)
CLK2 (human) = CLK2 (human) (UniProt P49760)
PAK4 (human) = PAK4 (human) (UniProt O96013)
TAOK1 (human) = TAOK1 (human) (UniProt Q7L7X3)
CLK3 (human) = CLK3 (human) (UniProt P49761)
AKT3 (human) = AKT3 (human) (UniProt Q9Y243)
RET (human) = RET (human) (UniProt P07949)
CLK1 (human) = CLK1 (human) (UniProt P49759)
ACVR1 (human) = ACVR1 (human) (UniProt Q04771)
LYN (human) = LYN (human) (UniProt P07948)
JAK2 JH1 JH2 (human) = JAK2 JH1 JH2 (human) (UniProt O60674)
NEK2 (human) = NEK2 (human) (UniProt P51955)
[1] = biological target: JAK1 JH1 catalytic (human) (UniProt P23458)
INSRR (human) = INSRR (human) (UniProt P14616)
ULK1 (human) = ULK1 (human) (UniProt O75385)
MAPK8 (human) = MAPK8 (human) (UniProt P45983)
CHUK (human) = CHUK (human) (UniProt O15111)
EPHB1 (human) = EPHB1 (human) (UniProt P54762)
LIMK1 (human) = LIMK1 (human) (UniProt P53667)
CDK3 CCNE1 (human) = CDK3 CCNE1 (human) (UniProt Q00526+P24864)
NEK6 (human) = NEK6 (human) (UniProt Q9HC98)
MAP4K5 (human) = MAP4K5 (human) (UniProt Q9Y4K4)
PLK3 (human) = PLK3 (human) (UniProt Q9H4B4)
RPS6KA5 KD2 (human) = RPS6KA5 KD2 (human) (UniProt O75582)
PRKG1 (human) = PRKG1 (human) (UniProt Q13976)
DYRK2 (human) = DYRK2 (human) (UniProt Q92630)
CSNK1G1 (human) = CSNK1G1 (human) (UniProt Q9HCP0)
PHKG1 (human) = PHKG1 (human) (UniProt Q16816)
TGFBR1 (human) = TGFBR1 (human) (UniProt P36897)
MAP3K5 (human) = MAP3K5 (human) (UniProt Q99683)
PTK2B (human) = PTK2B (human) (UniProt Q14289)
RPS6KA6 KD1 KD2 (human) = RPS6KA6 KD1 KD2 (human) (UniProt Q9UK32)
MLTK (human) = MLTK (human) (UniProt Q9NYL2)
EPHB4 (human) = EPHB4 (human) (UniProt P54760)

Sequence of RET (human) (P07949 whole entry, looked up): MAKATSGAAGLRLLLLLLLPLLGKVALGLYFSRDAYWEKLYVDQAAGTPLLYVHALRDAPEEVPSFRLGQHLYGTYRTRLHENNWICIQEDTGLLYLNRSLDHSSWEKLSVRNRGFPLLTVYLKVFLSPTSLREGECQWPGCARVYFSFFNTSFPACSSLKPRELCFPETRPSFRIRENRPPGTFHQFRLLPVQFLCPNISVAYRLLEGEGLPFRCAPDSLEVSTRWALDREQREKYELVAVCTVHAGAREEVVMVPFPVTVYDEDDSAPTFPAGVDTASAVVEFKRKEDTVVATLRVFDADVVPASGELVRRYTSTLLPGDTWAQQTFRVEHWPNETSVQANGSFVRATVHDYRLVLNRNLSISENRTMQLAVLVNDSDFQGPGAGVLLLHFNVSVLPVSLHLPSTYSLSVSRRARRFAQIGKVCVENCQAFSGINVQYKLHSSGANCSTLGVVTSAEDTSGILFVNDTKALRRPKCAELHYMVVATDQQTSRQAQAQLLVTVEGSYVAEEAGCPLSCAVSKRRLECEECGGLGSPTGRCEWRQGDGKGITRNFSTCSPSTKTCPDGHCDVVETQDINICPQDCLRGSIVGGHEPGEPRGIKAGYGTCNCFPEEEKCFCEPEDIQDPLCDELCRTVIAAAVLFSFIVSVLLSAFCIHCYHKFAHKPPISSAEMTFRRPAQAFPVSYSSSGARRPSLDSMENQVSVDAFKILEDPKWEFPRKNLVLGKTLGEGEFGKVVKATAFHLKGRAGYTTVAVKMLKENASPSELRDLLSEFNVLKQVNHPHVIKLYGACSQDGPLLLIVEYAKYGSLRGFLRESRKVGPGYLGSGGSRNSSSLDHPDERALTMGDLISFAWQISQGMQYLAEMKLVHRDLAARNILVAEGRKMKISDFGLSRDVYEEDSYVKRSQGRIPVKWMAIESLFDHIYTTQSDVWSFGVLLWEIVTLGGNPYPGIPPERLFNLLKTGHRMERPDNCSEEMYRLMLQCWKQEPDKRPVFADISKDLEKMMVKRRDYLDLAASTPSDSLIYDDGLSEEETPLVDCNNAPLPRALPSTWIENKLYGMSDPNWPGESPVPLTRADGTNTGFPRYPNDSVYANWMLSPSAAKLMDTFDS
Sequence of ULK2 (human) (Q8IYT8 whole entry, looked up): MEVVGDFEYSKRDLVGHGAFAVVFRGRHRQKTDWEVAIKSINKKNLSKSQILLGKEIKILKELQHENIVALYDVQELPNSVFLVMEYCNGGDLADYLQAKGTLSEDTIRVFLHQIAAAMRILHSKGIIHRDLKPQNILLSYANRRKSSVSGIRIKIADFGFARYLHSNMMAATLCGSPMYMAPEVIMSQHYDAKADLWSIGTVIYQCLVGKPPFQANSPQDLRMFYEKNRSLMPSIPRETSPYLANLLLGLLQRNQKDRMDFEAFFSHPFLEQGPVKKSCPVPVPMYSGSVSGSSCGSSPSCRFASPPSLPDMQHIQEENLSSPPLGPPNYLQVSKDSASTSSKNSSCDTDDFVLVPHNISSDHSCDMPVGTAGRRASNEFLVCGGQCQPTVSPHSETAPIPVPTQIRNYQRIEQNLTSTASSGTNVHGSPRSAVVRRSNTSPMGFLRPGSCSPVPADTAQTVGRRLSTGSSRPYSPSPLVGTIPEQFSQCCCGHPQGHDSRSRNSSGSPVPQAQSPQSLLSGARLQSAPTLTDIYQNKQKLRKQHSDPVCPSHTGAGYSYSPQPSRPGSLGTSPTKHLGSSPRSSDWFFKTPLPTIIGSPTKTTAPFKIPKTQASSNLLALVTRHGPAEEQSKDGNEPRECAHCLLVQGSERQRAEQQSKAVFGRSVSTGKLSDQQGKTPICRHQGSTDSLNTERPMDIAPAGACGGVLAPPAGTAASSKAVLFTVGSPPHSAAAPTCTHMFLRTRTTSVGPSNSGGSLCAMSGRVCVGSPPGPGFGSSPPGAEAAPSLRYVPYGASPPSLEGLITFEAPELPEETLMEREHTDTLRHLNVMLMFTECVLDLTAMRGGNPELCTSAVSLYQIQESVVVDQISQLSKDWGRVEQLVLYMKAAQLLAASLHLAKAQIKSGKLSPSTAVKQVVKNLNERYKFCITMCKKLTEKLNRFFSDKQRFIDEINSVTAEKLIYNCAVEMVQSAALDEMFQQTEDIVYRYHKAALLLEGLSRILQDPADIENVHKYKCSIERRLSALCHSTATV
Sequence of CHUK (human) (O15111 whole entry, looked up): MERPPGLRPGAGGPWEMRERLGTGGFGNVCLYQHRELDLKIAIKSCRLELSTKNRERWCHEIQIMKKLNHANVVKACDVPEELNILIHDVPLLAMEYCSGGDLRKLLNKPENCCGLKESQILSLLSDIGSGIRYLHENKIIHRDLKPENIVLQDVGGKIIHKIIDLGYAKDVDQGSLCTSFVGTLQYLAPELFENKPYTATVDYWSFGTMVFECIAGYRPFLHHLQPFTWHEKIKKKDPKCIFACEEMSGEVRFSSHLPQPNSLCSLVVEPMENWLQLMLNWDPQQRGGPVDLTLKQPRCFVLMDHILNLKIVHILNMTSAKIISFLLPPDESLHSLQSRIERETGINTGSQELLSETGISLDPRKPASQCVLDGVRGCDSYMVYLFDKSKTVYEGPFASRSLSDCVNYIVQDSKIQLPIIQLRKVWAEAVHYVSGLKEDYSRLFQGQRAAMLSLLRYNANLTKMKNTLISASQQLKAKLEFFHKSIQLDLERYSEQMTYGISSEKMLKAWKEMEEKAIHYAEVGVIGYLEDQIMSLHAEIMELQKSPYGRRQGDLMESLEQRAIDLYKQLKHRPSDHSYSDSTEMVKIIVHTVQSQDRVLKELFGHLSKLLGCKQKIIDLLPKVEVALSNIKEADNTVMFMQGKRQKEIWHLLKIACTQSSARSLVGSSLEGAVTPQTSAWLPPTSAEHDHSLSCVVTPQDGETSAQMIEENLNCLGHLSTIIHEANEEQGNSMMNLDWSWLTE
Sequence of CDK3 CCNE1 (human) (P24864 whole entry, looked up): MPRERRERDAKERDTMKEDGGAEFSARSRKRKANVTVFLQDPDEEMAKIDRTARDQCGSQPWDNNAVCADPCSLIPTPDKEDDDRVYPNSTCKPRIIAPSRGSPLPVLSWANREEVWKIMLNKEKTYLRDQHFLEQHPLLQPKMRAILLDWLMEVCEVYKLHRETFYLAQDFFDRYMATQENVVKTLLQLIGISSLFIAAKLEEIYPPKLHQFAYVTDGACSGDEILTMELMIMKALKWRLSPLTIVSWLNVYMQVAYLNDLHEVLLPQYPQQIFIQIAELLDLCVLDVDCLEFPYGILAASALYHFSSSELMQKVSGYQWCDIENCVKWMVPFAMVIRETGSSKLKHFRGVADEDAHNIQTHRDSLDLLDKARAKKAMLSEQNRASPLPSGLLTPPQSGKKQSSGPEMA
Sequence of CDK3 CCNE1 (human) (Q00526 whole entry, looked up): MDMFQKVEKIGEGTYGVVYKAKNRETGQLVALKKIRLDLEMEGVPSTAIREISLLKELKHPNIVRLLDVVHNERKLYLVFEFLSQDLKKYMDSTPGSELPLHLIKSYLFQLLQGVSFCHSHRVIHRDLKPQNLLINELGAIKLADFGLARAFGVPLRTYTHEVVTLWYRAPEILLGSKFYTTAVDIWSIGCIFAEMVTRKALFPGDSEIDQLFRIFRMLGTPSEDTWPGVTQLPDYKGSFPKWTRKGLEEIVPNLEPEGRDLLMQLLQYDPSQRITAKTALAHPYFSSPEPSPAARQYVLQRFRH
Sequence of NEK6 (human) (Q9HC98 whole entry, looked up): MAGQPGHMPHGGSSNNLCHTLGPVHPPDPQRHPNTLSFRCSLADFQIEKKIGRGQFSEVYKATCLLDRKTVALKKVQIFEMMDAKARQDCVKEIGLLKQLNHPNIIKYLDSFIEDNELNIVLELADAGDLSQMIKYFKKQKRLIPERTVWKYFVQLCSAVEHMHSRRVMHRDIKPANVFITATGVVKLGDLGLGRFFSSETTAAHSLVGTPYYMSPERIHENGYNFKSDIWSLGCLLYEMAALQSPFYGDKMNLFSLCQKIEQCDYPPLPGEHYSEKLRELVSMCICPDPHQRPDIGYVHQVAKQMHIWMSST
Sequence of HCK (human) (P08631 whole entry, looked up): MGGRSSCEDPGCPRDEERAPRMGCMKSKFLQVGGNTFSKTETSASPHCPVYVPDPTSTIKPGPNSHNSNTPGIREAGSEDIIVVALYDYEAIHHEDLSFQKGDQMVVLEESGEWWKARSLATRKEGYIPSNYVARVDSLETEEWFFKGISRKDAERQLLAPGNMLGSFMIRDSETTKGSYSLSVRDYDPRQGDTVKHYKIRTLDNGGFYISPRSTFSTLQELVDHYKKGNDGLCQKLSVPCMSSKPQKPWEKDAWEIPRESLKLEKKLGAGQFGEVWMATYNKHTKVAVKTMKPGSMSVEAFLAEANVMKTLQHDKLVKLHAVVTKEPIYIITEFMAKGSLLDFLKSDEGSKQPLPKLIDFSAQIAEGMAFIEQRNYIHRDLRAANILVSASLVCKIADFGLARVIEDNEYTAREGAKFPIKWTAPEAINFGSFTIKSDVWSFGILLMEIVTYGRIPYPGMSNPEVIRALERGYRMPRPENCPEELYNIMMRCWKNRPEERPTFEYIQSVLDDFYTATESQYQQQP
Sequence of MAPK8 (human) (P45983 whole entry, looked up): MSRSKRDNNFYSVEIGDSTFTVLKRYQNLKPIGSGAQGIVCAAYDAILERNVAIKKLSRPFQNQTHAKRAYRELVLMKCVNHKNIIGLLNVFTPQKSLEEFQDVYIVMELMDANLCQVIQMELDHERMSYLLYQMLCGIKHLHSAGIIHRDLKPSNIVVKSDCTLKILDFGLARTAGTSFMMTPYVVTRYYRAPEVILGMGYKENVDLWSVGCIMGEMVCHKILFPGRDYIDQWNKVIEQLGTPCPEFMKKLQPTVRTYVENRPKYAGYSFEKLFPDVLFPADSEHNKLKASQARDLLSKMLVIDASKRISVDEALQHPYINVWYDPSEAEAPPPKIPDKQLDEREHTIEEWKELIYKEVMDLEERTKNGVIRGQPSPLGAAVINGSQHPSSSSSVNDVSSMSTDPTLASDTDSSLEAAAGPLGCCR

COc1cc2ncnc(Nc3ccc(F)c(Cl)c3)c2cc1OCCCN1CCOCC1
residual activity (MAP3K10 (human)): 109% | residual activity (NTRK3 (human)): 103% | residual activity (ERBB2 (human)): 34.2% | residual activity (PAK3 (human)): 106% | residual activity (MARK3 (human)): 94.5% | residual activity (ULK2 (human)): 104% | residual activity (TEC (human)): 104% | residual activity (HCK (human)): 73.3% | residual activity (VRK1 (human)): 99.3% | residual activity (CLK2 (human)): 94.8% | residual activity (PAK4 (human)): 90.2% | residual activity (TAOK1 (human)): 103% | residual activity (CLK3 (human)): 106% | residual activity (AKT3 (human)): 84.6% | residual activity (RET (human)): 76.9% | residual activity (CLK1 (human)): 105% | residual activity (ACVR1 (human)): 106% | residual activity (LYN (human)): 57.1% and 67.8% | residual activity (JAK2 JH1 JH2 (human)): 99.8% | residual activity (NEK2 (human)): 98.4% | residual activity [1]: 102% | residual activity (INSRR (human)): 112% | residual activity (ULK1 (human)): 93% | residual activity (MAPK8 (human)): 93.1% | residual activity (CHUK (human)): 94.9% | residual activity (EPHB1 (human)): 94.8% | residual activity (LIMK1 (human)): 90% | residual activity (CDK3 CCNE1 (human)): 95% | residual activity (NEK6 (human)): 89.9% | residual activity (MAP4K5 (human)): 80% | residual activity (PLK3 (human)): 103% | residual activity (RPS6KA5 KD2 (human)): 100% | residual activity (PRKG1 (human)): 103% and 87.5% | residual activity (DYRK2 (human)): 98.2% | residual activity (CSNK1G1 (human)): 99.5% | residual activity (PHKG1 (human)): 68.8% | residual activity (TGFBR1 (human)): 99.6% | residual activity (MAP3K5 (human)): 103% | residual activity (PTK2B (human)): 98.9% | residual activity (RPS6KA6 KD1 KD2 (human)): 95.2% | residual activity (MLTK (human)): 96.2%

CS(=O)c1ccc(-c2nc(-c3ccc(F)cc3)c(-c3ccncc3)[nH]2)cc1 (stereo unspecified)
residual activity (MAP3K10 (human)): 104% | residual activity (NTRK3 (human)): 98% | residual activity (ERBB2 (human)): 94.6% | residual activity (PAK3 (human)): 102% | residual activity (MARK3 (human)): 101% | residual activity (ULK2 (human)): 83.5% | residual activity (TEC (human)): 113% | residual activity (HCK (human)): 96.1% | residual activity (EPHB4 (human)): 91.1% | residual activity (CLK2 (human)): 108% | residual activity (TAOK1 (human)): 97.9% | residual activity (CLK3 (human)): 99.1% | residual activity (AKT3 (human)): 102% | residual activity (RET (human)): 85.1% | residual activity (CLK1 (human)): 101% | residual activity (ACVR1 (human)): 97.4% | residual activity (LYN (human)): 91.8% and 99.1% | residual activity (JAK2 JH1 JH2 (human)): 99.5% | residual activity (NEK2 (human)): 105% | residual activity [1]: 105% | residual activity (INSRR (human)): 100% | residual activity (ULK1 (human)): 89.3% | residual activity (MAPK8 (human)): 96.1% | residual activity (CHUK (human)): 100% | residual activity (EPHB1 (human)): 93% | residual activity (LIMK1 (human)): 91.3% | residual activity (CDK3 CCNE1 (human)): 94.6% | residual activity (NEK6 (human)): 103% | residual activity (MAP4K5 (human)): 99.5% | residual activity (PLK3 (human)): 97.3% | residual activity (RPS6KA5 KD2 (human)): 103% | residual activity (PRKG1 (human)): 88.8% and 94.3% | residual activity (DYRK2 (human)): 98.7% | residual activity (CSNK1G1 (human)): 95.7% | residual activity (PHKG1 (human)): 94.1% | residual activity (TGFBR1 (human)): 101% | residual activity (MAP3K5 (human)): 107% | residual activity (PTK2B (human)): 92.5% | residual activity (RPS6KA6 KD1 KD2 (human)): 110% | residual activity (MLTK (human)): 100%

Nc1nc(Nc2ccc(S(N)(=O)=O)cc2)nn1C(=O)c1c(F)cccc1F
residual activity (MAP3K10 (human)): 77.8% | residual activity (NTRK3 (human)): 37.6% | residual activity (ERBB2 (human)): 91.1% | residual activity (MARK3 (human)): 67.6% | residual activity (ULK2 (human)): 102% | residual activity (TEC (human)): 122% | residual activity (HCK (human)): 86.2% | residual activity (EPHB4 (human)): 81% | residual activity (VRK1 (human)): 90.4% | residual activity (CLK2 (human)): 71.5% | residual activity (PAK4 (human)): 90% | residual activity (TAOK1 (human)): 18.8% | residual activity (CLK3 (human)): 65.8% | residual activity (AKT3 (human)): 95% | residual activity (RET (human)): 54.1% | residual activity (CLK1 (human)): 85.1% | residual activity (ACVR1 (human)): 104% | residual activity (LYN (human)): 103% and 80.5% | residual activity (JAK2 JH1 JH2 (human)): 19.2% | residual activity (NEK2 (human)): 94.8% | residual activity [1]: 5.19% | residual activity (INSRR (human)): 93.8% | residual activity (ULK1 (human)): 62.5% | residual activity (MAPK8 (human)): 85.9% | residual activity (CHUK (human)): 99% | residual activity (EPHB1 (human)): 84.1% | residual activity (LIMK1 (human)): 16.6% | residual activity (CDK3 CCNE1 (human)): 32.4% | residual activity (NEK6 (human)): 102% | residual activity (MAP4K5 (human)): 45.3% | residual activity (PLK3 (human)): 91.3% | residual activity (RPS6KA5 KD2 (human)): 97.2% | residual activity (PRKG1 (human)): 104% and 86.1% | residual activity (DYRK2 (human)): 112% | residual activity (PHKG1 (human)): 102% | residual activity (TGFBR1 (human)): 104% | residual activity (MAP3K5 (human)): 103% | residual activity (PTK2B (human)): 79.7% | residual activity (RPS6KA6 KD1 KD2 (human)): 24.7% | residual activity (MLTK (human)): 100%
